Patent US20090227533A1, “miR-34 Regulated Genes and Pathways as Targets for Therapeutic Intervention” (priority 2007, published 2009)

Columns and labels:
[1] = tested on: A549 cells; assay: Alamar Blue proliferation assay, lung cancer cells; assay type: cell-based, human; settings: normalized to NC (100%)
Description: (§1) The inventors assessed the therapeutic effect of hsa-miR-34a for lung cancer by using eight individual lung cancer cell lines. To measure cellular proliferation of lung cancer cells, the following non-small cell lung cancer (NSCLC) cells were used: cells derived from lung adenocarcinoma (A549, H522, Calu-3, HCC2935), cells derived from lung squamous cell carcinoma (H226), cell derived from lung adenosquamous cell carcinoma (H596), cells derived from lung bronchioalveolar carcinoma (H1650), and cells derived from lung large cell carcinoma (H460). Synthetic hsa-miR-34a (Pre-miR™-hsa-miR-34a, Ambion cat. no. AM17100) or negative control (NC) miRNA (Pre-miR™ microRNA Precursor Molecule-Negative Control #2; Ambion cat. no. AM17111) was delivered via lipid-based transfection into A549, H522, H596, Calu-3, HCC2935, H1650, H460 cells and via electroporation into H226 cells.
(§2) Lipid-based reverse transfections were carried out in triplicate according to a published protocol (Ovcharenko et al., 2005) and the following parameters: cells (5,000-12,000 per 96 well), 0.1-0.2 μl Lipofectamine™ 2000 (cat. no. 11668-019, Invitrogen Corp., Carlsbad, Calif., USA) in 20 μl OptiMEM (Invitrogen), 30 nM final concentration of miRNA in 100 μl. Electroporation of H226 cells was carried out using the BioRad Gene Pulser Xcell™ instrument (BioRad Laboratories Inc., Hercules, Calif., USA) with the following settings: 5×10^6 cells with 5 μg miRNA in 200 μl OptiMEM (1.6 μM miRNA), square wave pulse at 250 V for 5 ms. Electroporated H226 cells were seeded at 7,000 cells per 96-well in a total volume of 100 μl. All cells except for Calu-3 cells were harvested 72 hours post transfection or electroporation for assessment of cellular proliferation. Calu-3 cells were harvested 10 days post transfection. Proliferation assays were performed using Alamar Blue (Invitrogen) following the manufacturer's instructions. As a control for inhibition of cellular proliferation, siRNA against the motor protein kinesin 11, also known as Eg5, was used. Eg5 is essential for cellular survival of most eukaryotic cells and a lack thereof leads to reduced cell proliferation and cell death (Weil et al., 2002). siEg5 was used in lipid-based transfection following the same experimental parameters that apply to miRNA. The inventors also used a DNA topoisomerase II inhibitor, etoposide, at a final concentration of 10 μM and 50 μM as an internal standard for the potency of miRNAs. Etoposide is an FDA-approved DNA topoisomerase II inhibitor in the treatment of lung cancer. […] Percent (%) proliferation values from the Alamar Blue assay were normalized to values from cells treated with negative control miRNA. Percent proliferation of hsa-miR-34a treated cells relative to cells treated with negative control miRNA (100%) is shown in Table 7 and in FIG. 1.

[2] = tested on: Calu-3 cells; assay: Alamar Blue proliferation assay, lung cancer cells; assay type: cell-based, human; settings: Calu-3, normalized to NC (100%)
Description: as §1, §2

[3] = tested on: H1650 cells; assay: Alamar Blue proliferation assay, lung cancer cells; assay type: cell-based, human; settings: normalized to NC (100%)
Description: as §1, §2

[4] = tested on: H460 cells; assay: Alamar Blue proliferation assay, lung cancer cells; assay type: cell-based, human; settings: normalized to NC (100%)
Description: as §1, §2

[5] = tested on: H522 cells; assay: Alamar Blue proliferation assay, lung cancer cells; assay type: cell-based, human; settings: normalized to NC (100%)
Description: as §1, §2

[6] = tested on: H596 cells; assay: Alamar Blue proliferation assay, lung cancer cells; assay type: cell-based, human; settings: normalized to NC (100%)
Description: as §1, §2

[7] = tested on: H226 cells; assay: Alamar Blue proliferation assay, lung cancer cells (electroporation); assay type: cell-based, human; settings: normalized to NC (100%)
Description: as §1
Lipid-based reverse transfections were carried out in triplicate according to a published protocol (Ovcharenko et al., 2005) and the following parameters: cells (5,000-12,000 per 96 well), 0.1-0.2 μl Lipofectamine™ 2000 (cat. no. 11668-019, Invitrogen Corp., Carlsbad, Calif., USA) in 20 μl OptiMEM (Invitrogen), 30 nM final concentration of miRNA in 100 μl. Electroporation of H226 cells was carried out using the BioRad Gene Pulser Xcell™ instrument (BioRad Laboratories Inc., Hercules, Calif., USA) with the following settings: 5×10^6 cells with 5 μg miRNA in 200 μl OptiMEM (1.6 μM miRNA), square wave pulse at 250 V for 5 ms. Electroporated H226 cells were seeded at 7,000 cells per 96-well in a total volume of 100 μl. All cells except for Calu-3 cells were harvested 72 hours post transfection or electroporation for assessment of cellular proliferation. Calu-3 cells were harvested 10 days post transfection. Proliferation assays were performed using Alamar Blue (Invitrogen) following the manufacturer's instructions. As a control for inhibition of cellular proliferation, siRNA against the motor protein kinesin 11, also known as Eg5, was used. […]

[8] = tested on: H460 lung cancer cells; assay: Alamar Blue proliferation assay with pair-wise miRNA combinations; assay type: cell-based, human; settings: normalized to 600 pM negative control miRNA
Description: miRNAs function in multiple pathways controlling multiple cellular processes. Cancer cells frequently show aberrations in several different pathways, which determine their oncogenic properties. […] The inventors assessed the efficacy of pair-wise miRNA combinations, administering hsa-miR-34a concurrently with either hsa-miR-124a, hsa-miR-126, hsa-miR-147, hsa-let-7b, hsa-let-7c or hsa-let-7g (Pre-miR™ miRNA, Ambion cat. no. AM17100). H460 lung cancer cells were transiently reverse-transfected in triplicate with each miRNA at a final concentration of 300 pM, resulting in 600 pM of total oligonucleotide. For negative controls, 600 pM of Pre-miR™ microRNA Precursor Molecule-Negative Control #2 (Ambion cat. no. AM17111) were used. To correlate the effect of various combinations with the effect of the sole miRNA, each miRNA at 300 pM was also combined with 300 pM negative control miRNA. Reverse transfection was carried out using the following parameters: 7,000 cells per 96 well, 0.15 μl Lipofectamine™ 2000 (Invitrogen) in 20 μl OptiMEM (Invitrogen), 100 μl total transfection volume. […] Cells were harvested 72 hours after transfection and subjected to Alamar Blue assays (Invitrogen). Percent proliferation values from the Alamar Blue assays were normalized to those obtained from cells treated with 600 pM negative control miRNA. Data are expressed as % proliferation relative to negative control miRNA-treated cells (Table 8, FIG. 3).
Additive activity of pair-wise combinations (e.g., hsa-miR-34a plus hsa-miR-147) is defined as an activity that is greater than the sole activity of each miRNA (e.g., the activity of hsa-miR-34a plus hsa-miR-147 is greater than that observed for hsa-miR-34a plus NC and the activity of hsa-miR-34a plus hsa-miR-147 is greater than that observed for hsa-miR-147 plus NC). Synergistic activity of pair-wise combinations is defined as an activity that is greater than the sum of the sole activity of each miRNA (e.g., the activity of hsa-miR-34a plus hsa-let-7g is greater than that observed for the sum of the activity of hsa-miR-34a plus NC and the activity of hsa-let-7g plus NC). […] The combinatorial use of miRNAs represents a potentially useful therapy for cancer and other diseases.

[9] = tested on: SCLC and NSCLC cells; settings: various lung cancer cells (Tsai et al., 1993; Ohsaki et al., 1992); cited from earlier work

COc1cc([C@@H]2c3cc4c(cc3[C@@H](O[C@@H]3O[C@@H]5CO[C@@H](C)O[C@H]5[C@H](O)[C@H]3O)[C@H]3COC(=O)[C@H]23)OCO4)cc(OC)c1O [Etoposide, etoposide]
% proliferation ([1]; etoposide 10 μM): 49.13% | % proliferation ([1]; etoposide 50 μM): 42.18% | % proliferation ([2]; etoposide 10 μM): 20.81% | % proliferation ([2]; etoposide 50 μM): 13.53% | % proliferation ([3]; etoposide 10 μM): 90.98% | % proliferation ([3]; etoposide 50 μM): 60.31% | % proliferation ([4]; etoposide 10 μM): 32.13% | % proliferation ([4]; etoposide 50 μM): 27.82% | % proliferation ([5]; etoposide 10 μM): 82.13% | % proliferation ([5]; etoposide 50 μM): 61.08% | % proliferation ([6]; etoposide 10 μM): 88.75% | % proliferation ([6]; etoposide 50 μM): 73.39% | % proliferation ([7]; etoposide 10 μM): 28.17% | % proliferation ([7]; etoposide 50 μM): 9.33% | % proliferation ([8]; etoposide 10 μM): 20.19% | % proliferation ([8]; etoposide 50 μM): 14.94% | IC50 [9]: 1 to 25 µM
